This is an account of results in patent publication US11453671B2, “Pyrazolopyrimidine inhibitors of JAK kinases and uses thereof” (Genentech, Inc., priority 2020, dated 2022).

For orientation: Ki means a measure of affinity in units of concentration, obtained from inhibition or displacement. A word on the IC50: it is the midpoint of a concentration-inhibition curve.

Series [1] deals with T1, recombinant human JAK1 kinase domain protein (Residues 854-1154) (Homo sapiens, UniProt P23458).
T1 construct: human JAK1 kinase domain protein (Residues 854-1154); purchased Proteros Biostructures GmbH (Martinsried, Germany); host or cells: insect cells
T1 sequence (P23458 854-1154): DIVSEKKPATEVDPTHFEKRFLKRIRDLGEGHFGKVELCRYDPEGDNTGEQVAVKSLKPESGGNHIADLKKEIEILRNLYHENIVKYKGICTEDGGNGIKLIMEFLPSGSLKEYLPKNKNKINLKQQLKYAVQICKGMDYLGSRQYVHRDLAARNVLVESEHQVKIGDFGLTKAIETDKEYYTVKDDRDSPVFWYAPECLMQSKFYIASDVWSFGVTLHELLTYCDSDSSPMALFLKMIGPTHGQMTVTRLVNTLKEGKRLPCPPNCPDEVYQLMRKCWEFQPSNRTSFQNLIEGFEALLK
In words: JAK1 biochemical assay (microfluidic mobility shift, peptide phosphorylation). The settings on record: 25 μM ATP, 1 nM total JAK1; read-out: Enzyme JAK1 Ki. The text has this: JAK1 and JAK2 Biochemical Assays

Series [2] deals with JAK1 pathway: P-STAT6 in TF-1 human erythroleukemia cells + IL-13. In words: P-STAT6 TF-1+Interleukin-13 (IL-13) assay. The settings on record: IL-13 stimulation, read-out: Cellular JAK1 PSTAT6 TF-1 + IL13 IC50. The format is cell-based. The procedure: (§1) TF-1 human erythroleukemia cells (ATCC®; Manassas, Va.; Catalog No. CRL-2003™) were grown in Roswell Park Memorial Institute (RPMI) medium supplemented with 10% heat-inactivated fetal bovine serum (FBS), 2 ng/mL granulocyte-macrophage colony-stimulating factor, 1×non-essential amino acids (NEAA), and 1 mM sodium pyruvate. The day before the assay, the cultures were transferred to Opti-MEM™, 1×NEAA, 1 mM sodium pyruvate, and 0.5% charcoal-stripped FBS (starve medium). Inhibitor stock solutions (5 mM in DMSO) were serially diluted 1:2 in DMSO to generate a 10-point concentration titration (at 500×test concentration), which was further diluted by a 50-fold dilution in Assay Medium (RPMI containing 1×NEAA and 1 mM sodium pyruvate) to generate a 10×concentration titration (in 2% DMSO). The cells (300,000 cells/well in 35 μL of Assay Medium) were seeded in 384-well Greiner plates. Diluted inhibitor at 10×concentration (5 μL) was added to the cells and the plates were incubated for 30 minutes at 37° C. in a humidified incubator. Cells were stimulated with the human recombinant cytokine at the respective EC90 concentrations, as previously determined for each individual lot. For the phosphorylated signal transducer and activator of transcription 6 (P-STAT6) TF-1+Interleukin-13 (IL-13) assay, 10 μL of 250 ng/mL IL-13 (R&D Systems; Minneapolis, Minn.) was added to the cells, which were then incubated for 10 minutes at 37° C. For the P-STAT5 TF-1+Erythropoietin (EPO) assay, 10 μL of 110 IU/mL EPO (Gibco Life Technologies, Catalog No. PHC2054) was added to the cells, which were then incubated for 30 min at 37° C. For both assays, the incubation was followed by addition to the cells of 5 μL of ice-cold 10× cell lysis buffer (Cell Signaling Technologies; Danvers, Mass.; Catalog No. 9803S) containing 1 mM phenylmethylsulfonyl fluoride (PMSF). Assay plates were frozen at −80° C. for a minimum of 1 horn. In the IL-13 assay, P-STAT6 was measured by coating goat anti-rabbit (GAR) plates (Meso Scale Discovery [MSD]; Rockville, Md.; Catalog No. MSD L21RA-1) with rabbit anti-human total STAT6 antibody (Cell Signaling Technologies; Catalog No. 9362S), incubating the cell lysates in the coated plates overnight at 4° C., and then detecting with mouse anti-P-STAT6 (Tyr641) Clone 16E12 antibody (MilliporeSigma; Burlington, Mass.; Catalog No. 05-590, custom labeled by MSD with SULFO-tag) using standard MSD plate processing, washing, and detection protocols. In the EPO assay, P-STAT5 was detected using the phospho-STAT5a,b Whole Cell Lysate Kit (MSD; Catalog No. K150IGD-1). The electrochemiluminescence (ECL) signal of wells was read on the MESO SECTOR S600 (MSD) reader.

Series [3] has as its system JAK2 pathway: P-STAT5 in TF-1 human erythroleukemia cells + EPO. In words: P-STAT5 TF-1+Erythropoietin (EPO) assay. The format is cell-based. The settings on record: EPO stimulation, read-out: Cellular JAK2 PSTAT5 TF-l + EPO IC50. The method, then: as §1
Series [4] can be described thus: Mouse lung tissue binding (equilibrium dialysis, RED). Type of series: in vitro ADME. The settings on record: for Mouse LTB %: mouse lung tissue binding, % bound (Table 3); for Lung tissue binding, %: Table 5, sulfone-sulfide analog pairs. The procedure: Mouse lung tissue binding. A high bound fraction or percentage of JAK1/JAK2 inhibitors to lung tissue may be undesirable since it can reduce the amount of free drug available to inhibit JAK1 or JAK2.
(a) Tissue binding experiments were performed in triplicate (n=3) using a Single-Use RED Plate by following the standard protocol. Initially, individual drugs were spiked to tissue homogenates (pH 7.4) to achieve a final concentration of 1 μM, and then 300 μL of drug-tissue homogenate mixtures were transferred to the donor wells of the RED plate which was pre-loaded with 500 μL phosphate buffer saline (133 mM) on the receiver wells. The RED plate was sealed with a gas permeable membrane and placed in a shaking incubator (450 rpm, VWR Symphony™) for 6 hr at 37° C. with 5% CO2. At the end of incubation, aliquots of 30 μL samples were taken out of the RED device and matrix equalized with an equal volume of tissue homogenates or buffer, and resulting samples were then immediately quenched with ice cold acetonitrile (sample:acetonitrile 1:4) containing either propranolol or labetalol as an internal standard. After shaking for 15 min at 500 rpm on a Thermo Scientific Compact Digital MicroPlate Shaker, all samples were then subjected to centrifugation at 3700 rpm for 15 min (Beckman Coulter Allegra X 12R) to remove plasma protein. Subsequently, supernatants were collected and then diluted with an equal volume of water prior to LC-MS/MS analysis.
(b) In an alternate procedure, the extent of lung tissue binding of test compound to mouse lung homogenate may also be determined by equilibrium dialysis using Pierce RED (rapid equilibrium dialysis) devices (Fisher Scientific 89811 & 89809). A 10 mM solution of compound in DMSO was prepared and diluted to 1 mM with DMSO. An aliquot of this 1 mM (4 μL) was added into lung homogenate (dilution factor of 1:9, lung tissue:potassium phosphate buffer (0.05 M, pH 7.4)) to give a final compound incubation concentration of 5 μM with solvent accounting for 0.5% (v/v) of the final incubation volume.
For each assay, the percentage lung tissue bound was determined in triplicate. Lung homogenate (200 μL) was loaded into one side of a RED device insert, in triplicate, and 350 μL of potassium phosphate buffer was loaded into the other side. The RED devices were sealed and incubated for 4 hours at ca. 37° C. on an orbital shaker (˜150 rpm).
Following incubation, an aliquot of lung homogenate (8 μL) and an aliquot of dialysate (72 μL) were matrix matched (lung homogenate with 72 μL phosphate buffer, dialysate with 8 μL lung homogenate) ahead of analysis. Protein was precipitated from the samples with the addition of 160 μL of acetonitrile containing internal standard. The same matrix matching and protein precipitation procedure was performed on lung homogenate aliquots sampled at the start of the experiment (t=0 min samples), for the assessment of the mass balance. The quenched samples were centrifuged (4000 rpm, 30 min, 4° C.) and the resultant supernatant diluted with water (3:1 (v/v), supernatant: water) and the samples analysed for parent compound by liquid chromatography mass spectrometry assay.
The unbound fraction (fu) in lung homogenate was determined from the ratio of the dialysate to homogenate peak area, corrected to take into account the lung homogenate dilution (D) to enable an estimate of whole lung tissue binding using the following equations: Undiluted fu=(1/D)/[((1/Apparent fu)−1)+(1/D)] Corrected fraction bound (%)=(1-undiluted fu)*100
Background: In equilibrium dialysis only unbound substance equilibrates across the membrane.

Like-named read-outs stand apart in the source and are kept apart here.

Take `Cn1cc(NC(=O)c2cnn3cccnc23)c(-c2cc(S(=O)(=O)c3ccn(C)c(=O)c3)ccc2OC(F)F)n1` [Example 44, N-[3-[2-(difluoromethoxy)-5-[(1-methyl-2-oxo-4-pyridyl)sulfonyl]phenyl]-1-methyl-pyrazol-4-yl]pyrazolo[1,5-a]pyrimidine-3-carboxamide]: the Ki in series [1] came to 0.52 nM. The IC50 amounted to 14 nM in series [2] (Homo sapiens, TF-1, TF-1 cells) and 15 nM in series [3] (Homo sapiens, TF-1, TF-1 cells). Besides, the “Mouse LTB %” value in series [4] was found to be 86.5%.
Take `Cn1cc(NC(=O)c2cnn3cccnc23)c(-c2cc(S(=O)(=O)C3CCC3)ccc2OC(F)F)n1` [Example 2, N-[3-[5-cyclobutylsulfonyl-2-(difluoromethoxy)phenyl]-1-methyl-pyrazol-4-yl]pyrazolo[1,5-a]pyrimidine-3-carboxamide]: the Ki in series [1] stood at 0.5 nM. In addition, the IC50 is 14 nM in series [2] (Homo sapiens, TF-1, TF-1 cells) and 12 nM in series [3] (Homo sapiens, TF-1, TF-1 cells). For the same compound, the “Mouse LTB %” value in series [4] stood at 88.1%.
For the compound `CS(=O)(=O)c1ccc(OC(F)F)c(-c2nn(CC#N)cc2NC(=O)c2cnn3cccnc23)c1` [Example 28, N-[1-(cyanomethyl)-3-[2-(difluoromethoxy)-5-methylsulfonyl-phenyl]pyrazol-4-yl]pyrazolo[1,5-a]pyrimidine-3-carboxamide], the Ki in series [1] came to 0.24 nM. Also, the IC50 in series [2] (Homo sapiens, TF-1, TF-1 cells) came out at 3.1 nM. The IC50 in series [3] (Homo sapiens, TF-1, TF-1 cells) is 26 nM. In addition, in series [4], the “Lung tissue binding, %” value turned out to be 70.8% and the “Mouse LTB %” value worked out at 70.8%.
For the compound `C[C@H](Cn1cc(S(=O)(=O)c2ccc(OC(F)F)c(-c3nn(C)cc3NC(=O)c3cnn4cccnc34)c2)cn1)N(C)C` [Example 59, N-[3-[2-(difluoromethoxy)-5-[1-[(2R)-2-(dimethylamino)propyl]pyrazol-4-yl]sulfonyl-phenyl]-1-methyl-pyrazol-4-yl]pyrazolo[1,5-a]pyrimidine-3-carboxamide], the Ki in series [1] amounted to 0.53 nM. Moreover, the IC50 in series [2] (Homo sapiens, TF-1, TF-1 cells) is 13 nM; in series [3] (Homo sapiens, TF-1, TF-1 cells), 28 nM.
Turning to `Cn1cc(NC(=O)c2cnn3cccnc23)c(-c2cc(S(=O)(=O)CCO)ccc2OC(F)F)n1` [Example 5, N-[3-[2-(difluoromethoxy)-5-(2-hydroxyethylsulfonyl)phenyl]-1-methyl-pyrazol-4-yl]pyrazolo[1,5-a]pyrimidine-3-carboxamide], in series [1], the Ki is 0.43 nM. In addition, the IC50 stood at 16 nM in series [2] (Homo sapiens, TF-1, TF-1 cells) and 29 nM in series [3] (Homo sapiens, TF-1, TF-1 cells). In addition, the “Mouse LTB %” value in series [4] is 80.1%.
On the same counts, the results for `Cn1cc(NC(=O)c2cnn3cccnc23)c(-c2cc(S(=O)(=O)C3CC3)ccc2OC(F)F)n1` [Example 22, N-[3-[5-cyclopropylsulfonyl-2-(difluoromethoxy)phenyl]-1-methyl-pyrazol-4-yl]pyrazolo[1,5-a]pyrimidine-3-carboxamide] are 0.46 nM, 4.6 nM, 14 nM and 88.7%.
On the same counts, the results for `CC(CO)S(=O)(=O)c1ccc(OC(F)F)c(-c2nn(C)cc2NC(=O)c2cnn3cccnc23)c1` (single isomer, unassigned) [Example 23, N-[3-[2-(difluoromethoxy)-5-(2-hydroxy-1-methyl-ethyl)sulfonyl-phenyl]-1-methyl-pyrazol-4-yl]pyrazolo[1,5-a]pyrimidine-3-carboxamide] are 0.26 nM, 20 nM, 22 nM and 82.1%.
With `Cn1cc(NC(=O)c2cnn3cccnc23)c(-c2cc(S(=O)(=O)C3CCCNC3)ccc2OC(F)F)n1` (single isomer, unassigned) [Example 37, N-[3-[2-(difluoromethoxy)-5-(3-piperidylsulfonyl)phenyl]-1-methyl-pyrazol-4-yl]pyrazolo[1,5-a]pyrimidine-3-carboxamide], the Ki in series [1] was found to be 0.69 nM. Also, the IC50 amounted to 51 nM in series [2] (TF-1 cells) and 38 nM in series [3] (TF-1 cells). Further, in series [4], the “Mouse LTB %” value was found to be 90.1%.
Turning to `Cn1cc(NC(=O)c2cnn3cccnc23)c(-c2cc(S(=O)(=O)c3ccccc3)ccc2OC(F)F)n1` [Example 40, N-[3-[5-(benzenesulfonyl)-2-(difluoromethoxy)phenyl]-1-methyl-pyrazol-4-yl]pyrazolo[1,5-a]pyrimidine-3-carboxamide], the Ki in series [1] was 0.21 nM. Further, the IC50 came out at 3.1 nM in series [2] (Homo sapiens, TF-1, TF-1 cells) and 6.4 nM in series [3] (Homo sapiens, TF-1, TF-1 cells). The “Mouse LTB %” value in series [4] is listed as 95.6%.
Regarding `Cn1cc(S(=O)(=O)c2ccc(OC(F)F)c(-c3nn(C)cc3NC(=O)c3cnn4cccnc34)c2)cn1` [Example 35, N-[3-[2-(difluoromethoxy)-5-(1-methylpyrazol-4-yl)sulfonyl-phenyl]-1-methyl-pyrazol-4-yl]pyrazolo[1,5-a]pyrimidine-3-carboxamide], the inhibitory constant (Ki) in series [1] came to 0.3 nM. Further, in series [2] (Homo sapiens, TF-1, TF-1 cells), the IC50 stood at 5.8 nM. The IC50 in series [3] (Homo sapiens, TF-1, TF-1 cells) turned out to be 14 nM. Besides, in series [4], the “Lung tissue binding, %” value was 86.2% and the “Mouse LTB %” value turned out to be 86.2%.
Consider `CN(C)S(=O)(=O)c1ccc(OC(F)F)c(-c2nn(C)cc2NC(=O)c2cnn3cccnc23)c1` [Example 30, N-[3-[2-(difluoromethoxy)-5-(dimethylsulfamoyl)phenyl]-1-methyl-pyrazol-4-yl]pyrazolo[1,5-a]pyrimidine-3-carboxamide], for which the inhibitory constant (Ki) in series [1] was found to be 0.22 nM. In addition, the “Mouse LTB %” value in series [4] turned out to be 83.1%.
